Results published in PubChem BioAssay AID651630 (Sanford-Burnham Center for Chemical Genomics, 2012).
The source made the active and inactive calls.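 The calls were made as follows: active = lipid-stain IC50 at or below a set limit, with nuclear-stain toxicity IC50 at least five times higher; inactive = the rest.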

Key:
[1] = test system: DAPI; assay: TAG lipid buildup inhibition with viability readout – cell-based, panel, Nile Red and DAPI fluorescence, H9c2, dose response (AID 651630); settings: H9c2 cells, DAPI nuclear fluorescence (cytotoxicity counter-readout), oleic acid;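 also: cells exposed to compound overnight before fixation and staining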
[2] = test system: TAG; assay: as above; settings: H9c2 cells, Nile Red TAG fluorescence, oleic acid

## Cn1cc(/C=N/n2cnc3scc(-c4ccc(Cl)cc4)c3c2=O)c2ccccc21
[1]; run 1
  IC50 cytotoxicity (DAPI nuclear signal decrease): > 25 µM
[1]; run 2
  IC50 cytotoxicity (DAPI nuclear signal decrease): > 25 µM
[2]; run 1
  IC50: 5.8 µM
[2]; run 2
  IC50: < 0.78 µM

## Cc1cccc(-c2ccc3[nH]c4c(c3c2)CCN2C[C@@H]([C@H](C)O)[C@@H](N(C)C(=O)Nc3ccc(F)cc3)C[C@@H]42)c1
[1]; mean of runs
  IC50 cytotoxicity (DAPI nuclear signal decrease): > 25 µM (inactive)
[1]; run 1
  IC50 cytotoxicity (DAPI nuclear signal decrease): > 25 µM
[1]; run 2
  IC50 cytotoxicity (DAPI nuclear signal decrease): > 25 µM
[2]; run 1
  IC50: 18 µM
[2]; run 2
  IC50: > 25 µM

## CC(C)N(C(=O)[C@H]1C[C@H](CC(=O)NCc2cccc(C(F)(F)F)c2)C(=O)N2CCc3c([nH]c4ccc(Cl)cc34)[C@]12C)C(C)C
[1]; mean of runs
  IC50 cytotoxicity (DAPI nuclear signal decrease): > 25 µM (inactive)
[1]; run 1
  IC50 cytotoxicity (DAPI nuclear signal decrease): > 25 µM
[1]; run 2
  IC50 cytotoxicity (DAPI nuclear signal decrease): > 25 µM
[2]; mean of runs
  IC50: 10.6 µM
[2]; run 1
  IC50: 9.86 µM
[2]; run 2
  IC50: 11.4 µM

## CCCCCc1ccc(-c2cn(Cc3ccc(C(=O)c4ccccc4)cc3)nn2)cc1
[1]; mean of runs
  IC50 cytotoxicity (DAPI nuclear signal decrease): > 25 µM (inactive)
[1]; run 1
  IC50 cytotoxicity (DAPI nuclear signal decrease): > 25 µM
[1]; run 2
  IC50 cytotoxicity (DAPI nuclear signal decrease): > 25 µM
[2]; run 1
  IC50: 17.9 µM
[2]; run 2
  IC50: > 25 µM

## Cc1ccc(S(=O)(=O)NC2=C(N3CCN(c4ccccc4F)CC3)C(=O)c3ccccc3C2=O)cc1
[1]; mean of runs
  IC50 cytotoxicity (DAPI nuclear signal decrease): > 25 µM (inactive)
[1]; run 1
  IC50 cytotoxicity (DAPI nuclear signal decrease): > 25 µM
[1]; run 2
  IC50 cytotoxicity (DAPI nuclear signal decrease): > 25 µM
[2]; mean of runs
  IC50: 8.82 µM
[2]; run 1
  IC50: 8.52 µM
[2]; run 2
  IC50: 9.11 µM

## CCCCSc1nc2ccc(Nc3nc(N4CCOCC4)nc(N4CCOCC4)n3)cc2s1
[1]; run 1
  IC50 cytotoxicity (DAPI nuclear signal decrease): > 25 µM
[1]; run 2
  IC50 cytotoxicity (DAPI nuclear signal decrease): > 25 µM
[2]; mean of runs
  IC50: 4.78 µM
[2]; run 1
  IC50: 4.98 µM
[2]; run 2
  IC50: 4.59 µM

## Oc1ccc(C[C@H]2CNC(=S)N2CC2CCCN2C[C@H](Cc2ccc(O)cc2)N2C[C@H](Cc3ccc(O)cc3)N(CC3CCCCC3)C2=S)cc1 (stereo not given in full)
[1]; mean of runs
  IC50 cytotoxicity (DAPI nuclear signal decrease): > 25 µM (inactive)
[1]; run 1
  IC50 cytotoxicity (DAPI nuclear signal decrease): > 25 µM
[1]; run 2
  IC50 cytotoxicity (DAPI nuclear signal decrease): > 25 µM
[2]; mean of runs
  IC50: 9.34 µM
[2]; run 1
  IC50: 8.74 µM
[2]; run 2
  IC50: 9.95 µM

## O=C(Nc1nc(-c2ccccc2)cs1)C1CCCN(S(=O)(=O)c2cccc([N+](=O)[O-])c2)C1 (stereo not given)
[1]; mean of runs
  IC50 cytotoxicity (DAPI nuclear signal decrease): > 25 µM (inactive)
[1]; run 1
  IC50 cytotoxicity (DAPI nuclear signal decrease): > 25 µM
[1]; run 2
  IC50 cytotoxicity (DAPI nuclear signal decrease): > 25 µM
[2]; run 1
  IC50: 22.1 µM
[2]; run 2
  IC50: > 25 µM

## COc1cc(C#Cc2c(-c3cncn3C)n(C)c3ccc(-c4ccc5[nH]ccc5c4)cc23)cc(OC)c1
[1]; run 1
  IC50 cytotoxicity (DAPI nuclear signal decrease): > 25 µM
[1]; run 2
  IC50 cytotoxicity (DAPI nuclear signal decrease): > 25 µM
[2]; mean of runs
  IC50: 4.19 µM
[2]; run 1
  IC50: 3.78 µM
[2]; run 2
  IC50: 4.6 µM

## CCOC(=O)c1cc(CC)sc1NC(=O)c1cc([N+](=O)[O-])ccc1N1CCOCC1
[1]; mean of runs
  IC50 cytotoxicity (DAPI nuclear signal decrease): > 25 µM (inactive)
[1]; run 1
  IC50 cytotoxicity (DAPI nuclear signal decrease): > 25 µM
[1]; run 2
  IC50 cytotoxicity (DAPI nuclear signal decrease): > 25 µM
[2]; mean of runs
  IC50: > 25 µM (inactive)
[2]; run 1
  IC50: > 25 µM
[2]; run 2
  IC50: > 25 µM

## COc1cc(CNC(=O)Nc2nc(C(N)Cc3ccc(C(F)(F)F)cc3)cs2)cc(OC)c1OC (stereo not given)
[1]; mean of runs
  IC50 cytotoxicity (DAPI nuclear signal decrease): > 25 µM (inactive)
[1]; run 1
  IC50 cytotoxicity (DAPI nuclear signal decrease): > 25 µM
[1]; run 2
  IC50 cytotoxicity (DAPI nuclear signal decrease): > 25 µM
[2]; mean of runs
  IC50: 8.38 µM
[2]; run 1
  IC50: 8.1 µM
[2]; run 2
  IC50: 8.66 µM

## Fc1ccc(Oc2nc(-c3ccccn3)nc3ccccc23)cc1
[1]; mean of runs
  IC50 cytotoxicity (DAPI nuclear signal decrease): > 25 µM (inactive)
[1]; run 1
  IC50 cytotoxicity (DAPI nuclear signal decrease): > 25 µM
[1]; run 2
  IC50 cytotoxicity (DAPI nuclear signal decrease): > 25 µM
[2]; mean of runs
  IC50: > 25 µM (inactive)
[2]; run 1
  IC50: > 25 µM
[2]; run 2
  IC50: > 25 µM

## Clc1cccc(Nc2nc(-c3ccncc3)nc3ccccc23)c1
[1]; mean of runs
  IC50 cytotoxicity (DAPI nuclear signal decrease): > 25 µM (inactive)
[1]; run 1
  IC50 cytotoxicity (DAPI nuclear signal decrease): > 25 µM
[1]; run 2
  IC50 cytotoxicity (DAPI nuclear signal decrease): > 25 µM
[2]; run 1
  IC50: 18.9 µM
[2]; run 2
  IC50: > 25 µM
